Usually solubility stands for the concentration that dissolves in the medium under given conditions. Low values mean a poorly soluble substance, high ones a readily soluble substance.

The structures appear in SMILES notation. ≈ marks a conversion by molar mass, not a printed value. Counter-ions that a name gives are not always drawn. Where only a bound is given, the exact number is not on record here.

This series is described as follows: Solubility assay (high throughput 96-well plate, pH 7.4 phosphate buffer). The following applies: aqueous buffer, thermodynamic from solid, shaken two days at room temperature, UV-UPLC. In kind it is physicochemical. How it is done: Solubility measurements were performed using a high throughput 96-well plate based assay. For this, 0.2 mg of sample compound was weighed and added to a sample plate in triplicate and 650 μL of pH 7.4 phosphate buffer was added. The sample plate was capped, allowed to shake on a plate shaker for two days at room temperature, and then centrifuged (2000 rpm, 10 minutes) to settle undissolved solids. Approximately 600 μL of the aqueous supernatant slurry from each sample plate was transferred to a filter plate mounted on top of a receiver plate. Vacuum was applied to collect the filtrate. Appropriate dilutions were made in 50/50 methanol/water and quantification for concentration was performed against known standards by UV-UPLC. Some preferred compounds of the invention have greater solubility than the parent compound (P), N,N′-[(2S)-2-hydroxybicyclo[2.2.2]octane-1,4-diyl]bis[2-(4-chloro-3-fluorophenoxy)acetamide].

For the compound `CC(=O)O[C@H]1CC2(NC(=O)COc3ccc(Cl)c(F)c3)CCC1(NC(=O)COc1ccc(Cl)c(F)c1)CC2` (single isomer, unassigned) [Compound 100], the solubility at 2 days is < 0.82 µM.

As for `N[C@@H](CC(=O)O[C@H]1CC2(NC(=O)COc3ccc(Cl)c(F)c3)CCC1(NC(=O)COc1ccc(Cl)c(F)c1)CC2)C(=O)O` [Compound 102, (2S)-2-amino-4-({(2S)-1,4-bis[2-(4-chloro-3-fluorophenoxy)acetamido]bicyclo[2.2.2]octan-2-yl}oxy)-4-oxobutanoic acid], the solubility at 2 days turned out to be 59 µM (≈ 38 µg/mL).

Take `O=C(COc1ccc(Cl)c(F)c1)NC12CCC(NC(=O)COc3ccc(Cl)c(F)c3)(CC1)[C@@H](OC(=O)Cc1ccccc1OP(=O)(O)O)C2` [Compound 115]: the concentration in solution (solubility at 2 days) was 936 µM (≈ 696 µg/mL).

Take `CN(C(=O)O[C@H]1CC2(NC(=O)COc3ccc(Cl)c(F)c3)CCC1(NC(=O)COc1ccc(Cl)c(F)c1)CC2)c1ncccc1COP(=O)(O)O` [Compound 116, (2S)-1,4-bis[2-(4-chloro-3-fluorophenoxy)acetamido]bicyclo[2.2.2]octan-2-yl methyl{3-[(phosphonooxy)methyl]pyridin-2-yl}carbamate]: the concentration in solution (solubility at 2 days) came to 903 µM (≈ 698 µg/mL). The solubility at 2 days values of the last two compounds are within 1.5-fold of each other.

On to `O=C(COc1ccc(Cl)c(F)c1)NC12CCC(NC(=O)COc3ccc(Cl)c(F)c3)(CC1)[C@@H](OC(=O)NCCOP(=O)(O)O)C2` [Compound 117], for which the concentration in solution (solubility at 2 days) was 598 µM (≈ 416 µg/mL).

As to `O=C(COc1ccc(Cl)c(F)c1)NC12CCC(NC(=O)COc3ccc(Cl)c(F)c3)(CC1)[C@@H](OC(=O)CCCOP(=O)(O)O)C2` [Compound 120, (2S)-1,4-bis[2-(4-chloro-3-fluorophenoxy)acetamido]bicyclo[2.2.2]octan-2-yl 4-(phosphonooxy)butanoate], the solubility at 2 days is 812 µM (≈ 565 µg/mL).

As to `O=C(COc1ccc(Cl)c(F)c1)NC12CCC(NC(=O)COc3ccc(Cl)c(F)c3)(CC1)[C@@H](OC(=O)OCCOP(=O)(O)O)C2` [Compound 121, (2S)-1,4-bis[2-(4-chloro-3-fluorophenoxy)acetamido]bicyclo[2.2.2]octan-2-yl 2-(phosphonooxy)ethyl carbonate], the solubility at 2 days is > 1000 µM.

`CC(C)(COP(=O)(O)O)CC(=O)O[C@H]1CC2(NC(=O)COc3ccc(Cl)c(F)c3)CCC1(NC(=O)COc1ccc(Cl)c(F)c1)CC2` [Compound 122, (2S)-1,4-bis[2-(4-chloro-3-fluorophenoxy)acetamido]bicyclo[2.2.2]octan-2-yl 3,3-dimethyl-4-(phosphonooxy)butanoate]: the concentration in solution (solubility at 2 days) was 317 µM (≈ 229 µg/mL).

Regarding `O=C(COc1ccc(Cl)c(F)c1)NC12CCC(NC(=O)COc3ccc(Cl)c(F)c3)(CC1)[C@@H](OS(=O)(=O)O)C2` [Compound 125, (2S)-1,4-bis[2-(4-chloro-3-fluorophenoxy)acetamido]bicyclo[2.2.2]octan-2-yl hydrogen sulfate], the solubility at 2 days worked out at 152 µM.

In turn, `O=C(COc1ccc(Cl)c(F)c1)NC12CCC(NC(=O)COc3ccc(Cl)c(F)c3)(CC1)[C@@H](OC(=O)CCCCOP(=O)(O)O)C2` [Compound 127, (2S)-1,4-bis[2-(4-chloro-3-fluorophenoxy)acetamido]bicyclo[2.2.2]octan-2-yl 5-(phosphonooxy)pentanoate] yielded a solubility at 2 days of 645 µM (≈ 458 µg/mL).

For `O=C(COc1ccc(Cl)c(F)c1)NC12CCC(NC(=O)COc3ccc(Cl)c(F)c3)(CC1)[C@@H](OCOP(=O)(O)O)C2` [Compound 131, ({(2S)-1,4-bis[2-(4-chloro-3-fluorophenoxy)acetamido]bicyclo[2.2.2]octan-2-yl}oxy)methyl dihydrogen phosphate], the solubility at 2 days was > 1000 µM.

The values above are taken from patent publication US11149043B2 (Calico Life Sciences LLC, priority 2018, dated 2021).
